# Measured values taken from US10647675B2 (priority 2015, dated 2020).
# Tests used:
# [1] = test system: Trichophyton mentagrophytes SM-110; assay: Antifungal activity evaluation test: minimum inhibitory concentration (MIC), broth dilution by reference to CLSI M38-A2; format: cell-based; settings: SM110, read-out: MIC (T. menta.)
# How it was run: (§1)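 Broth microdilution after CLSI M38-A2: 2-fold DMSO dilution series in MOPS-buffered RPMI 1640 pH 7.0, inoculum 2×10^3 cells/mL final. Incubated 35° C for 4 days; MIC (μg/mL) is lowest concentration giving visually ≥80% growth inhibition versus growth control.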
# [2] = test system: Trichophyton rubrum KD-1130; assay: as above; format: cell-based; settings: KD1130, read-out: MIC (T. rubrum)
# How it was run: as §1
Structure (SMILES),MIC [1],MIC [2]
"CC(F)(F)c1ccc(Oc2ncccc2-c2cncc(F)c2Cl)cn1 [I-97, 4′-chloro-2-{[6-(1,1-difluoroethyl)pyridin-3-yl]oxy}-5′-fluoro-3,3′-bipyridine]",0.2 to 0.78 µg/mL,0.2 to 0.78 µg/mL
"COc1c(F)cncc1-c1cccnc1Oc1ccc(C(C)(F)F)nc1 [I-98, 2-{[6-(1,1-difluoroethyl)pyridin-3-yl]oxy}-5′-fluoro-4′-methoxy-3,3′-bipyridine]",0.2 to 0.78 µg/mL,0.2 to 0.78 µg/mL
"COc1c(Cl)cncc1-c1cccnc1Oc1ccc(C(C)(F)F)nc1 [I-100, 5′-chloro-2-{[6-(1,1-difluoroethyl)pyridin-3-yl]oxy}-4′-methoxy-3,3′-bipyridine]",≤ 0.1 µg/mL,≤ 0.1 µg/mL
"Cc1nsc(C)c1-c1cccnc1Oc1ccc(C(C)(F)F)nc1 [I-101, 4-(2-{[6-(1,1-difluoroethyl)pyridin-3-yl]oxy}pyridin-3-yl)-3,5′-dimethylisothiazole]",0.2 to 0.78 µg/mL,0.2 to 0.78 µg/mL
Cc1noc(C)c1-c1cccnc1Oc1ccc(C(C)(F)F)nc1 [I-102],0.2 to 0.78 µg/mL,0.2 to 0.78 µg/mL
"Cc1noc(-c2cccnc2Oc2ccc(C(C)(F)F)nc2)c1Cl [I-104, 4-chloro-5-(2-{[6-(1,1-difluoroethyl)pyridin-3-yl]oxy}pyridin-3-yl)-3-methylisoxazole]",0.2 to 0.78 µg/mL,0.2 to 0.78 µg/mL
CC(F)(F)c1ccc(Oc2ncccc2-c2cccnc2N2CCCC2)cn1 [I-105],1.56 to 6.25 µg/mL,1.56 to 6.25 µg/mL
"CC(F)(F)c1ccc(Oc2ncccc2-c2cccnc2-n2ccnc2)cn1 [I-106, 2-{[6-(1,1-difluoroethyl)pyridin-3-yl]oxy}-2′-(1H-imidazol-1-yl)-3,3′-bipyridine]",1.56 to 6.25 µg/mL,1.56 to 6.25 µg/mL
"CC(F)(F)c1ccc(Oc2ncccc2-c2cccnc2-n2cccn2)cn1 [I-107, 2-{[6-(1,1-difluoroethyl)pyridin-3-yl]oxy}-2′-(1H-pyrazol-1-yl)-3,3′-bipyridine]",1.56 to 6.25 µg/mL,1.56 to 6.25 µg/mL
"CC(F)(F)c1ccc(Oc2ncccc2-c2cncc3ccccc23)cn1 [I-109, 4-(2-{[6-(1,1-difluoroethyl)pyridin-3-yl]oxy}pyridin-3-yl)isoquinoline]",≤ 0.1 µg/mL,≤ 0.1 µg/mL
"CC(F)(F)c1ccc(Oc2ncccc2-c2cccc3nccnc23)cn1 [I-110, 5-(2-{[6-(1,1-difluoroethyl)pyridin-3-yl]oxy}pyridin-3-yl)quinoxaline]",≤ 0.1 µg/mL,0.2 to 0.78 µg/mL
"CC(F)(F)c1ccc(Oc2ncccc2-c2cncc3nccnc23)cn1 [I-111, 8-(2-{[6-(1,1-difluoroethyl)pyridin-3-yl]oxy}pyridin-3-yl)pyrido[3,4-b]pyrazine]",0.2 to 0.78 µg/mL,0.2 to 0.78 µg/mL
"CC(F)(F)c1ccc(Oc2ncccc2-c2nccc3ccccc23)cn1 [I-112, 1-(2-{[6-(1,1-difluoroethyl)pyridin-3-yl]oxy}-3-yl)isoquinoline]",0.2 to 0.78 µg/mL,0.2 to 0.78 µg/mL
"CC(F)(F)c1ccc(Oc2ncccc2-c2cccc3ncoc23)cn1 [I-114, 7-(2-{[6-(1,1-difluoroethyl)pyridin-3-yl]oxy}pyridin-3-yl)benzo[d]oxazole]",0.2 to 0.78 µg/mL,0.2 to 0.78 µg/mL
"CC(F)(F)c1ccc(Oc2ncccc2-c2cccc3ccnn23)cn1 [I-115, 7-(2-{[6-(1,1-difluoroethyl)pyridin-3-yl]oxy}pyridin-3-yl)pyrazolo[1,5-a]pyridine]",≤ 0.1 µg/mL,≤ 0.1 µg/mL
COc1ccccc1-c1cccnc1Oc1cnc(C(F)F)c(C)c1 [I-120],≤ 0.1 µg/mL,≤ 0.1 µg/mL
"COc1cc(F)ccc1-c1cccnc1Oc1cnc(C(F)F)c(C)c1 [I-121, 2-(difluoromethyl)-5-{[3-(4-fluoro-2-methoxyphenyl)pyridin-2-yl]oxy}-3-methylpyridine]",≤ 0.1 µg/mL,≤ 0.1 µg/mL
CCc1ccc(Oc2ncccc2-c2cccc3c2OCC3)cn1 [I-125],≤ 0.1 µg/mL,0.2 to 0.78 µg/mL
"CCc1ccc(Oc2ncccc2-c2cccnc2OC)cn1 [I-126, 2-[(6-ethylpyridin-3-yl)oxy]-2′-methoxy-3,3′-bipyridine]",0.2 to 0.78 µg/mL,0.2 to 0.78 µg/mL
"CCc1ccc(Oc2ncccc2-c2cnccc2OC)cn1 [I-127, 2-[(6-ethylpyridin-3-yl)oxy]-4′-methoxy-3,3′-bipyridine]",1.56 to 6.25 µg/mL,1.56 to 6.25 µg/mL
"COc1cc(F)ccc1-c1cccnc1Oc1ccc(C2CC2)nc1 [I-129, 2-[(6-cyclopropylpyridin-3-yl)oxy]-3-(4-fluoro-2-methoxyphenyl)pyridine]",≤ 0.1 µg/mL,≤ 0.1 µg/mL
"COc1ncccc1-c1cccnc1Oc1cnc(C2CC2)c(Cl)c1 [I-131, 2-[(5-chloro-6-cyclopropylpyridin-3-yl)oxy]-2′-methoxy-3,3′-bipyridine]",0.2 to 0.78 µg/mL,0.2 to 0.78 µg/mL
"COc1ccncc1-c1cccnc1Oc1cnc(C2CC2)c(Cl)c1 [I-132, 2-[(5-chloro-6-cyclopropylpyridin-3-yl)oxy]-4′-methoxy-3,3′-bipyridine]",0.2 to 0.78 µg/mL,1.56 to 6.25 µg/mL
"COc1ccccc1-c1cccnc1Oc1cnc2c(c1)CCCCC2 [I-136, 3-{[3-(2-methoxyphenyl)pyridin-2-yl]oxy}-6,7,8,9-tetrahydro-5H-cyclohepta[b]pyridine]",≤ 0.1 µg/mL,≤ 0.1 µg/mL
"c1cnc(Oc2cnc3c(c2)CCCC3)c(-c2cccc3c2OCC3)c1 [I-137, 3-{[3-(2,3-dihydrobenzyofuran-7-yl)pyridin-2-yl]oxy}-5,6,7,8-tetrahydroquinoline]",≤ 0.1 µg/mL,≤ 0.1 µg/mL
"COc1ccccc1-c1cccnc1Oc1cnc2c(c1)CCCC2O (stereo not shown) [I-140, 3-{[3-(2-methoxyphenyl)pyridin-2-yl]oxy}-5,6,7,8-tetrahydroquinolin-8-ol]",0.2 to 0.78 µg/mL,0.2 to 0.78 µg/mL

# Results, then the molecule that gave them:
MIC [1],MIC [2],Structure (SMILES)
≤ 0.1 µg/mL,≤ 0.1 µg/mL,"COc1ccc(OC)c(-c2cccnc2Oc2ccc(C(C)(F)F)nc2)n1 [I-96, 2′-{[6-(1,1-difluoroethyl)pyridin-3-yl]oxy}-3,6-dimethoxy-2,3′-bipyridine]"
0.2 to 0.78 µg/mL,0.2 to 0.78 µg/mL,"Cc1c(F)cncc1-c1cccnc1Oc1ccc(C(C)(F)F)nc1 [I-99, 2-{[6-(1,1-difluoroethyl)pyridin-3-yl]oxy}-5′-fluoro-4′-methyl-3,3′-bipyridine]"
≤ 0.1 µg/mL,0.2 to 0.78 µg/mL,"CC(F)(F)c1ccc(Oc2ncccc2-c2ccnc3ccccc23)cn1 [I-108, 4-(2-{[6-(1,1-difluoroethyl)pyridin-3-yl]oxy}pyridin-3-yl)quinoline]"
≤ 0.1 µg/mL,0.2 to 0.78 µg/mL,"CC(F)(F)c1ccc(Oc2ncccc2-c2cccc3ocnc23)cn1 [I-113, 4-(2-{[6-(1,1-difluoroethyl)pyridin-3-yl]oxy}-3-yl)benzo[d]oxazole]"
≤ 0.1 µg/mL,≤ 0.1 µg/mL,"CC(F)(F)c1ccc(Oc2ncccc2-c2cccc3c(Cl)cnn23)cn1 [I-116, 3-chloro-7-(2-{[6-(1,1-difluoroethyl)pyridin-3-yl]oxy}pyridin-3-yl)pyrazolo[1,5-a]pyridine]"
≤ 0.1 µg/mL,≤ 0.1 µg/mL,"COc1ccccc1-c1cccnc1Oc1cnc(C(F)(F)F)c(C)c1 [I-117, 5-{[3-(2-methoxyphenyl)pyridin-2-yl]oxy}-3-methyl-2-(trifluoromethyl)pyridine]"
≤ 0.1 µg/mL,≤ 0.1 µg/mL,"COc1cc(F)ccc1-c1cccnc1Oc1cnc(C(F)(F)F)c(C)c1 [I-118, 5-{[3-(4-fluoro-2-methoxyphenyl)pyridin-2-yl]oxy}-3-methyl-2-(trifluoromethyl)pyridine]"
≤ 0.1 µg/mL,≤ 0.1 µg/mL,"COc1ncc(F)cc1-c1cccnc1Oc1cnc(C(F)(F)F)c(C)c1 [I-119, 5-fluoro-2-methoxy-2′-{[5-methyl-6-(trifluoromethyl)pyridin-3-yl]oxy}-3,3′-bipyridine]"
≤ 0.1 µg/mL,≤ 0.1 µg/mL,"COc1ccc(F)cc1-c1cccnc1Oc1cnc(C(F)F)c(C)c1 [I-122, 2-(difluoromethyl)-5-{[3-(5-fluoro-2-methoxyphenyl)pyridin-2-yl]oxy}-3-methylpyridine]"
≤ 0.1 µg/mL,≤ 0.1 µg/mL,"COc1ccc(-c2cccnc2Oc2cnc(C(F)F)c(C)c2)c(OC)n1 [I-123, 2′-{[6-(difluoromethyl)-5-methylpyridin-3-yl]oxy}-2,6-dimethoxy-3,3′-bipyridine]"
0.2 to 0.78 µg/mL,0.2 to 0.78 µg/mL,"CCc1ccc(Oc2ncccc2-c2ccccc2OC)cn1 [I-124, 2-[(6-ethylpyridin-3-yl)oxy]-3-(2-methoxyphenyl)pyridine]"
≤ 0.1 µg/mL,≤ 0.1 µg/mL,"COc1ccccc1-c1cccnc1Oc1ccc(C2CC2)nc1 [I-128, 2-[(6-cyclopropylpyridin-3-yl)oxy]-3-(2-methoxyphenyl)pyridine]"
0.2 to 0.78 µg/mL,0.2 to 0.78 µg/mL,"COc1ncccc1-c1cccnc1Oc1ccc(C2CC2)nc1 [I-130, 2-[(6-cyclopropylpyridin-3-yl)oxy]-2′-methoxy-3,3′-bipyridine]"
1.56 to 6.25 µg/mL,1.56 to 6.25 µg/mL,"COc1ccncc1-c1cccnc1Oc1ccc(C2CC2)nc1 [I-133, 2-[(6-cyclopropylpyridin-3-yl)oxy]-4′-methoxy-3,3′-bipyridine]"
≤ 0.1 µg/mL,≤ 0.1 µg/mL,"COc1ccccc1-c1cccnc1Oc1cnc2c(c1)CCCC2 [I-134, 3-{[3-(2-methoxyphenyl)pyridin-2-yl]oxy}-5,6,7,8-tetrahydroquinoline]"
≤ 0.1 µg/mL,≤ 0.1 µg/mL,"COc1ncccc1-c1cccnc1Oc1cnc2c(c1)CCCC2 [I-135, 3-{[2′-methoxy-(3,3′-bipyridin)-2-yl]oxy}-5,6,7,8-tetrahydroquinoline]"
≤ 0.1 µg/mL,≤ 0.1 µg/mL,"c1cnc(Oc2cnc3c(c2)CCC3)c(-c2cccc3c2OCC3)c1 [I-138, 3-{[3-(2,3-dihydrobenzofuran-7-yl)pyridin-2-yl]oxy}-6,7-dihydro-5H-cyclopenta[b]pyridine]"
1.56 to 6.25 µg/mL,1.56 to 6.25 µg/mL,"COc1ccccc1-c1cccnc1Oc1cnc2c(c1)CCCC2OC(C)=O (stereo not shown) [I-139, 3-{[3-(2-methoxyphenyl)pyridin-2-yl]oxy}-5,6,7,8-tetrahydroquinolin-8-yl acetate]"
